This data set deals with non-small cell lung cancer (NSCLC) patients. Here is the method:
Potential factors linked to survival such as age, gender, performance status, smoking history, tumor histology, number of prior chemotherapy regimen, and presence of distant metastasis were also reviewed for each patient. Pretreatment interstitial lung disease was diagnosed using a high resolution computed tomography scan of the chest by diagnostic radiologists blinded to any clinical information.
The tumor response was assessed as complete response (CR), partial response (PR), no change (NC), or progressive disease (PD) according to the World Health Organization Criteria.
The cut-off level of KL-6 was set at 500 U/ml based on the levels of healthy individuals as reported previously.
Genomic DNAs were extracted from frozen or paraffin embedded specimens and the mutational status of the EGFR tyrosine kinase domain (through exons 18 to 21) was examined by the direct sequence method as described previously. In brief, the PCR amplification for extracted DNAs was done using HotStarTaq DNA polymerase (Qiagen Inc., Valencia, Calif.) with the specific primers and PCR conditions. PCR products were incubated using ExoSAP-IT (Amersham Biosciences Corp., Piscataway, N.J.) and then it was sequenced directly using the Applied Biosystems PRISM dye terminator cycle sequencing method (Perkin-Elmer Corp., Foster City, Calif.) with ABI PRISM 3100 Genetic Analyzer (Applied Biosystems, Foster City, Calif.).
The associations between various clinical factors were evaluated using either the χ^2 test or the Fisher's exact test. […] The progression-free and overall survival times were both calculated using the Kaplan-Meier method; different groups were compared using the log-rank test. Associations of various factors with survival were evaluated using the backward stepwise Cox regression analysis. Differences were considered to be statistically significant if the p value was less than 0.05.

The mark [1] stands for this setting: patients with elevated KL-6 (≧500 U/ml).
[2] abbreviates: patients with normal range of KL-6.

Read-outs that look alike come from different tables or passages of the source.

In the case of `COc1cc2ncnc(Nc3ccc(F)c(Cl)c3)c2cc1OCCCN1CCOCC1` [gefitinib], under “all 41 NSCLC patients”, the “complete response (CR), number of patients” value is listed as “One”; the “early discontinuance of gefitinib (less than 2 weeks) because of rapid tumor progression” value is reported as 3 (7%) patients; the “no change (NC), number of patients” value turned out to be 20 patients; the “partial response (PR), number of patients” value was “ten”. Further, under “all 41 NSCLC patients”, the “progressive disease (PD), number of patients” value is given as 10 patients. Further, the “overall objective response rate” value (all 41 NSCLC patients, gefitinib 250 mg daily oral, WHO criteria) came out at 26.8%. Under “all 41 patients”, the 1-year survival rate worked out at 61.0%, the 2-year survival rate is 29.8%, the “median overall survival time” value is 13.9 months and the “median progression-free survival time” value is reported as 4.7 months. The “severe interstitial lung disease or treatment-related death due to gefitinib treatment” value (all 41 patients, during the study period) is “neither severe interstitial lung disease nor treatment-related death occurred”. Also, the overall survival (patients with an EGFR mutation) was 17.8 months. Under setting [1], the “median overall survival time” value is 8.5 months and the “median progression-free survival time” value is recorded as 2.1 months. Besides, the response to gefitinib (patients with elevated serum KL-6 levels (≧500 U/ml)) amounted to 23%. Further, under setting [2], the “median overall survival time” value was 21.1 months and the “median progression-free survival time” value is given as 5.8 months. The compound further yielded an overall survival (patients with wild-type EGFR) of 8.5 months. Where the note is “patients with wild-type EGFR and elevated serum KL-6”, this compound came in with a median survival time of 6.5 months. Moreover, for the setting “patients with wild-type EGFR and normal range of KL-6”, the median survival time is 13.3 months. Further, the response to gefitinib (patients without elevated serum KL-6 levels) stood at 32%.

The record behind these values is patent US20090263838A1, “Method for determining a lung cancer treatment and method for determining the effectiveness of an agent for treatment of lung cancer” (Sanko Junyaku Co., Ltd., priority 2008, published 2009).
